Assay [1] has as its target Kelch domain of human KEAP1 (321-624 aa) (Homo sapiens (Human), UniProt Q14145). The assay is described as follows: KEAP1 KELCH ThermoFluor binding assay.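 Further: Ligand-induced melting temperature shift of E. coli-expressed KEAP1 Kelch protein, Kd estimated from concentration-response curves of ΔTm.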 The settings on record: KEAP Kelch […], 1,8-ANS, pH 7.0, average of results obtained, read-out: Tf Kd. (In general: In DSF a fluorescence change marks the thermal transition of the protein.)
Assay [2] concerns Glo-Response ARE-luc2P HEK293 cell line. The assay is described as follows: ARE luciferase reporter cell-based assay.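 Further: luciferase signal tracks Nrf2 activation of the ARE once compounds disrupt KEAP1-Nrf2 binding, read with One-Glo reagent, DMSO serving as low control.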 The settings on record: Homo sapiens, HEK293, 24 h, average of results obtained. In general terms: Reporter assays use an easily measured gene product as a stand-in for the process of interest.

A word on the Kd: it is a measure of binding affinity in units of concentration. In general, EC50 refers to the concentration needed to bring the measured effect to its halfway point. High values mean a less potent agent, low ones a more potent agent.

Kelch domain of human KEAP1 (321-624 aa), sequence (Q14145 321-624): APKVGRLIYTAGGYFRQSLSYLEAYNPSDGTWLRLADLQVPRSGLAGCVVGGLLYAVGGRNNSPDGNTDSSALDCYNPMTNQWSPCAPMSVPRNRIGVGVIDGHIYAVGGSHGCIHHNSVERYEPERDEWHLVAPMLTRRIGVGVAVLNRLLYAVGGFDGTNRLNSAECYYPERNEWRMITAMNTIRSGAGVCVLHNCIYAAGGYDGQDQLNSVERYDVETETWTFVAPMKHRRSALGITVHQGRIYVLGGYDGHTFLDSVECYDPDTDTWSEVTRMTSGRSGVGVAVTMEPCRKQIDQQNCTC

With `Cc1ccc([C@@H](CC(=O)O)c2ccn3c(C(F)(F)F)nnc3c2C)cc1CN1CC2(CC2)N(C)c2ncccc2S1(=O)=O` (single isomer, unassigned) [Example 185, (*R)-3-(4-Methyl-3-((5′-methyl-1′,1′-dioxido-5′H-spiro[cyclopropane-1,4′-pyrido[2,3-f][1,2,5]thiadiazepin]-2′(3′H)-yl)methyl)phenyl)-3-(8-methyl-3-(trifluoromethyl)-[1,2,4]triazolo[4,3-a]pyridin-7-yl)propanoic Acid], the Kd in assay [1] is 12 nM. The EC50 in assay [2] was 2720 nM.
Consider `Cc1ccc([C@@H](CC(=O)O)c2ccn3c(C(F)(F)F)nnc3c2C)cc1CN1C[C@]2(C)CCCN2c2ncccc2S1(=O)=O` (single isomer, unassigned) [Example 187, (*R)-3-(4-Methyl-3-(((*S)-7a-methyl-5,5-dioxido-7a,8,9,10-tetrahydropyrido[2,3-f]pyrrolo[2,1-d][1,2,5]thiadiazepin-6(7H)-yl)methyl)phenyl)-3-(8-methyl-3-(trifluoromethyl)-[1,2,4]triazolo[4,3-a]pyridin-7-yl)propanoic Acid], for which the Kd in assay [1] is less than 1 nM. For the same compound, a half-maximal effect in assay [2] (EC50) was put at 550 nM.
On to `CC[C@@H]1CN(Cc2cc([C@H](CC(=O)O)c3ccn4c(C(F)(F)F)nnc4c3C)ccc2C)S(=O)(=O)c2cccnc2O1` (single isomer, unassigned) [Example 189, (*S)-3-(3-(((R)-4-Ethyl-1,1-dioxido-3,4-dihydro-2H-pyrido[2,3-b][1,4,5]oxathiazepin-2-yl)methyl)-4-methylphenyl)-3-(8-methyl-3-(trifluoromethyl)-[1,2,4]triazolo[4,3-a]pyridin-7-yl)propanoic Acid], for which, in assay [1], the equilibrium dissociation constant (Kd) is less than 1 nM. For the same compound, it took 11 nM to reach a half-maximal effect in assay [2] (EC50).
The matching figures for `CC[C@@H]1CN(Cc2cc([C@@H](CC(=O)O)c3ccn4c(C(F)(F)F)nnc4c3C)ccc2C)S(=O)(=O)c2cccnc2O1` (single isomer, unassigned) [Example 190, (*R)-3-(3-(((R)-4-Ethyl-1,1-dioxido-3,4-dihydro-2H-pyrido[2,3-b][1,4,5]oxathiazepin-2-yl)methyl)-4-methylphenyl)-3-(8-methyl-3-(trifluoromethyl)-[1,2,4]triazolo[4,3-a]pyridin-7-yl)propanoic Acid]: less than 1 nM and 57 nM.
The corresponding values for `Cc1ccc([C@H](CC(=O)O)c2ccn3c(C(F)(F)F)nnc3c2C)cc1CN1C[C@@H]2CCCCN2c2ncc(Cl)cc2S1(=O)=O` (single isomer, unassigned) [Example 192, (*S)-3-(3-(((*S)-3-Chloro-5,5-dioxido-7,7a,8,9,10,11-hexahydro-6H-dipyrido[2,1-d:2′,3′-f][1,2,5]thiadiazepin-6-yl)methyl)-4-methylphenyl)-3-(8-methyl-3-(trifluoromethyl)-[1,2,4]triazolo[4,3-a]pyridin-7-yl)propanoic Acid] are less than 1 nM and 1.4 nM.
The matching figures for `Cc1ccc([C@H](CC(=O)O)c2ccn3c(C(F)(F)F)nnc3c2C)cc1CN1CC2(CC2)Oc2ncc(Cl)cc2S1(=O)=O` (single isomer, unassigned) [Example 195, (*S)-3-(3-((8′-Chloro-1′,1′-dioxidospiro[cyclopropane-1,4′-pyrido[2,3-b][1,4,5]oxathiazepin]-2′(3′H)-yl)methyl)-4-methylphenyl)-3-(8-methyl-3-(trifluoromethyl)-[1,2,4]triazolo[4,3-a]pyridin-7-yl)propanoic Acid]: less than 1 nM and 5.7 nM.
For the compound `Cc1ccc([C@H](CC(=O)O)c2ccn3c(C(F)(F)F)nnc3c2C)cc1CN1C[C@H]2COCCN2c2ncc(C#N)cc2S1(=O)=O` (single isomer, unassigned) [Example 196, (*S)-3-(3-(((*S)-3-Cyano-5,5-dioxido-7a,8,10,11-tetrahydro-[1,4]oxazino[3,4-d]pyrido[2,3-f][1,2,5]thiadiazepin-6(7H)-yl)methyl)-4-methylphenyl)-3-(8-methyl-3-(trifluoromethyl)-[1,2,4]triazolo[4,3-a]pyridin-7-yl)propanoic Acid], the Kd in assay [1] was less than 1 nM. In assay [2], this compound showed an EC50 of 15 nM.
The matching figures for `Cc1ccc([C@H](CC(=O)O)c2ccn3c(C(F)(F)F)nnc3c2C)cc1CN1C[C@H]2COCCN2c2ncc(Cl)cc2S1(=O)=O` (single isomer, unassigned) [Example 197, (*S)-3-(3-(((*S)-3-Chloro-5,5-dioxido-7a,8,10,11-tetrahydro-[1,4]oxazino[3,4-d]pyrido[2,3-f][1,2,5]thiadiazepin-6(7H)-yl)methyl)-4-methylphenyl)-3-(8-methyl-3-(trifluoromethyl)-[1,2,4]triazolo[4,3-a]pyridin-7-yl)propanoic Acid]: less than 1 nM and 1.8 nM.
The matching figures for `Cc1ccc([C@H](CC(=O)O)c2ccn3c(C(F)(F)F)nnc3c2C)cc1CN1CC2(CC2)Oc2ncc(C#N)cc2S1(=O)=O` (single isomer, unassigned) [Example 200, (*S)-3-(3-((8′-Cyano-1′,1′-dioxidospiro[cyclopropane-1,4′-pyrido[2,3-b][1,4,5]oxathiazepin]-2′(3′H)-yl)methyl)-4-methylphenyl)-3-(8-methyl-3-(trifluoromethyl)-[1,2,4]triazolo[4,3-a]pyridin-7-yl)propanoic Acid]: less than 1 nM and 61 nM.
`Cc1ccc([C@H](CC(=O)O)c2ccn3c(C(F)(F)F)nnc3c2C)cc1CN1CC2(CC2)Oc2ncc(C(N)=O)cc2S1(=O)=O` (single isomer, unassigned) [Example 201, (*S)-3-(3-((8′-Carbamoyl-1′,1′-dioxidospiro[cyclopropane-1,4′-pyrido[2,3-b][1,4,5]oxathiazepin]-2′(3′H)-yl)methyl)-4-methylphenyl)-3-(8-methyl-3-(trifluoromethyl)-[1,2,4]triazolo[4,3-a]pyridin-7-yl)propanoic Acid]: the Kd in assay [1] came out at 300 nM. In addition, the EC50 in assay [2] was more than 20000 nM.
The matching figures for `Cc1ccc([C@H](CC(=O)O)c2ccn3c(C(F)(F)F)nnc3c2C)cc1CN1C[C@H]2CCCCN2c2nc(C(N)=O)ccc2S1(=O)=O` (single isomer, unassigned) [Example 205, (*S)-3-(3-(((*R)-2-Carbamoyl-5,5-dioxido-7,7a,8,9,10,11-hexahydro-6H-dipyrido[2,1-d:2′,3′-f][1,2,5]thiadiazepin-6-yl)methyl)-4-methylphenyl)-3-(8-methyl-3-(trifluoromethyl)-[1,2,4]triazolo[4,3-a]pyridin-7-yl)propanoic Acid]: less than 1 nM and 130 nM.
In the case of `Cc1ccc([C@H](CC(=O)O)c2ccn3c(C(F)(F)F)nnc3c2C)cc1CN1C[C@H]2CCCN2c2ncc(C#N)cc2S1(=O)=O` (single isomer, unassigned) [Example 207, (*S)-3-(3-(((R)-3-Cyano-5,5-dioxido-7a,8,9,10-tetrahydropyrido[2,3-f]pyrrolo[2,1-d][1,2,5]thiadiazepin-6(7H)-yl)methyl)-4-methylphenyl)-3-(8-methyl-3-(trifluoromethyl)-[1,2,4]triazolo[4,3-a]pyridin-7-yl)propanoic Acid], in assay [1], the Kd was less than 1 nM. In addition, the EC50 in assay [2] came to 11 nM.
The matching figures for `Cc1cnc2c(c1)S(=O)(=O)N(Cc1cc([C@H](CC(=O)O)c3ccn4c(C(F)(F)F)nnc4c3C)ccc1C)CC1(CCOCC1)O2` (single isomer, unassigned) [Example 208, (*S)-3-(4-Methyl-3-((8′-methyl-1′,1′-dioxido-2,3,5,6-tetrahydrospiro[pyran-4,4′-pyrido[2,3-b][[,4,5]oxathiazepin]-2′(3′H)-yl)methyl)phenyl)-3-(8-methyl-3-(trifluoromethyl)-[1,2,4]triazolo[4,3-a]pyridin-7-yl)propanoic Acid]: less than 1 nM and 19 nM.
The matching figures for `Cc1ccc([C@H](CC(=O)O)c2ccc3c(nnn3C3CC3)c2C)cc1CN1C[C@H]2CCCN2c2ncccc2S1(=O)=O` (single isomer, unassigned) [Example 210, (*S)-3-(1-Cyclopropyl-4-methyl-1H-benzo[d][1,2,3]triazol-5-yl)-3-(3-(((R)-5,5-dioxido-7a,8,9,10-tetrahydropyrido[2,3-f]pyrrolo[2,1-d][1,2,5]thiadiazepin-6(7H)-yl)methyl)-4-methylphenyl)propanoic Acid]: less than 1 nM and 7.7 nM.
As to `Cc1ccc([C@@H](CC(=O)O)c2ccc3c(nnn3C3CC3)c2C)cc1CN1C[C@H]2CCCN2c2ncccc2S1(=O)=O` (single isomer, unassigned) [Example 211, (*R)-3-(1-Cyclopropyl-4-methyl-1H-benzo[d][1,2,3]triazol-5-yl)-3-(3-(((R)-5,5-dioxido-7a,8,9,10-tetrahydropyrido[2,3-f]pyrrolo[2,1-d][1,2,5]thiadiazepin-6(7H)-yl)methyl)-4-methylphenyl)propanoic Acid], the Kd in assay [1] is 1.1 nM. Also, a half-maximal response in assay [2] (EC50) required 42 nM.
The matching figures for `Cc1ccc([C@H](CC(=O)O)c2ccc3c(nnn3C3CC3)c2C)cc1CN1C[C@H]2CCCCN2c2ncccc2S1(=O)=O` (single isomer, unassigned) [Example 212, (*S)-3-(1-Cyclopropyl-4-methyl-1H-benzo[d][1,2,3]triazol-5-yl)-3-(3-(((*R)-5,5-dioxido-7,7a,8,9,10,11-hexahydro-6H-dipyrido[2,1-d:2′,3′-f][1,2,5]thiadiazepin-6-yl)methyl)-4-methylphenyl)propanoic Acid]: less than 1 nM and 3.7 nM.
As for `Cc1ccc([C@@H](CC(=O)O)c2ccc3c(nnn3C3CC3)c2C)cc1CN1C[C@H]2CCCCN2c2ncccc2S1(=O)=O` (single isomer, unassigned) [Example 213, (*R)-3-(1-Cyclopropyl-4-methyl-1H-benzo[d][1,2,3]triazol-5-yl)-3-(3-(((*R)-5,5-dioxido-7,7a,8,9,10,11-hexahydro-6H-dipyrido[2,1-d:2′,3′-f][1,2,5]thiadiazepin-6-yl)methyl)-4-methylphenyl)propanoic Acid], the Kd in assay [1] is less than 1 nM. In assay [2], this compound yielded an EC50 of 8 nM.

The values above are taken from US10947252B2, “Inhibitors of KEAP1-Nrf2 protein-protein interaction” (Janssen Pharmaceutica NV, priority 2018, dated 2021).
